From US20090092661A1, “LIPOSOME COMPOSITIONS FOR IN VIVO ADMINISTRATION OF BORONIC ACID COMPOUNDS” (priority 2007, published 2009)
Where two headings read alike, the source gives them in different places.

Key:
[1] = cited from earlier work
[2] = Plasma pharmacokinetics in mice (another study, Table 2); format: in vivo; details: mouse
Protocol: In another study, liposome-entrapped bortezomib was administered to mice and the pharmacokinetic parameters were determined. The liposomes were composed of 22:0PC/mPEG-DSPE and were prepared as described in Example 7.

[3] = Pharmacokinetics in plasma, blood and tumor of SCID mice bearing CWR22 tumors (Example 7); format: in vivo; details: for AUC(0-t): read-out: AUC(0-24 h)
Protocol: Liposome formulations prepared as described herein were administered in vivo to mice. As described in Example 7, liposomes comprised of 22:0PC/mPEG-DSPE (95/5) and containing entrapped bortezomib were prepared and administered intravenously to tumor-bearing mice. A control group of mice was treated with bortezomib sold under the trade name VELCADE®, which is a mixture of bortezomib in mannitol. FIGS. 11A-11C show the concentration, in ng/mL, of bortezomib in plasma (FIG. 11A), blood (FIG. 11B) and tumor (FIG. 11C) for the drug in free form (diamonds) or entrapped in liposomes (squares).
Blood and tumor samples were taken at various time points. The bortezomib concentrations in blood, plasma and tumor tissues were determined by LC-MS.

[4] = male, SCID, mouse, iv, Plasma, mice, i.v. 0.8 mg/kg
[5] = male, SCID, mouse, iv, Tumor, mice, i.v. 0.8 mg/kg
[6] = male, SCID, mouse, iv, Whole Blood, mice, i.v. 0.8 mg/kg

## CC(C)C[C@H](NC(=O)[C@H](Cc1ccccc1)NC(=O)c1cnccn1)B(O)O [bortezomib]
[1]; intravenous bolus on days 1, 4, 8, and 11 of a 3-week cycle
  maximum tolerated dose: 1.56 mg/m^2
[1]; patients with solid tumors, intravenously once or twice weekly
  maximum tolerated dose: 1.3 mg/m^2
[2]; intravenous, read-out: Conc. At 5 min.
  concentration at 5 min: 423 ± 33.6 ng/mL
[2]; iv, read-out: AUC(0-24 h)
  AUC(0-t): 271 ng·h/mL
[2]; iv, read-out: CL-obs (converted)
  clearance: 0.897 mL/min
[2]; iv, read-out: Vss
  Vd: 0.37 L
[3]; Whole Blood
  CL(app) = dose/AUC24 h: 0.358 mL/min/kg
[3]; male, SCID, mouse, intravenous, 0.8 mg/kg, Plasma, estimated using T½α phase, read-out: CL-obs (converted)
  clearance: 0.222 mL/min/kg
[3]; male, SCID, mouse, intravenous, 0.8 mg/kg, Plasma, estimated using T½α phase, read-out: Vss-obs
  Vd: 0.0427 L/kg
[3]; [4]
  Cmax: 23500 ng/mL
  AUC(0-t): 59800 ng·h/mL
[3]; male, SCID, mouse, iv, Plasma, mice, i.v. 0.8 mg/kg, read-out: T1/2(α) (converted)
  half-life: 2.7 h
[3]; [5]
  Cmax: 674 ng/mL
  AUC(0-t): 12800 ng·h/mL
[3]; [6]
  Cmax: 10300 ng/mL
  AUC(0-t): 37200 ng·h/mL
